Measurements reported in the NIST ThermoML archive (doi:10.1016/j.jct.2015.08.021).
Numbers after ± are expanded uncertainties.

How the values were obtained:
[1] = refractive index (Na D-line) (dimensionless); xn = mol fraction of the nth substance listed; details: 101.3 kPa, Liquid, Standard Abbe refractometry
[2] = relative permittivity at various frequencies (dimensionless); xn = mol fraction of the nth substance listed; details: 101.3 kPa, Liquid, Frequency=0.1 MHz, Coaxial cylinder capacitor
[3] = 298.15 K; 101.33 kPa; Liquid; Vibrating tube method
[4] = refractive index (Na D-line) (dimensionless); details: 101.3 kPa, Liquid, Standard Abbe refractometry
[5] = relative permittivity at various frequencies (dimensionless); details: 101.3 kPa, Liquid, Frequency=0.1 MHz, Coaxial cylinder capacitor

## OCCCCO [1,4-butanediol] + CCCCCO
[1]; 298.15 K, x1 = 0.1
  refractive index: 1.4118 ± 0.0011
[1]; 298.15 K, x1 = 0.2
  refractive index: 1.4147 ± 0.0011
[1]; 298.15 K, x1 = 0.3
  refractive index: 1.4185 ± 0.0011
[1]; 298.15 K, x1 = 0.403
  refractive index: 1.4226 ± 0.0011
[1]; 298.15 K, x1 = 0.501
  refractive index: 1.4256 ± 0.0011
[1]; 298.15 K, x1 = 0.601
  refractive index: 1.4302 ± 0.0011
[1]; 298.15 K, x1 = 0.701
  refractive index: 1.4334 ± 0.0011
[1]; 298.15 K, x1 = 0.8
  refractive index: 1.4375 ± 0.0011
[1]; 298.15 K, x1 = 0.9
  refractive index: 1.441 ± 0.0011
[1]; 298.15 K, x1 = 1
  refractive index: 1.4445 ± 0.0011
[1]; 308.15 K, x1 = 0.1
  refractive index: 1.4081 ± 0.0011
[1]; 308.15 K, x1 = 0.2
  refractive index: 1.4114 ± 0.0011
[1]; 308.15 K, x1 = 0.3
  refractive index: 1.4149 ± 0.0011
[1]; 308.15 K, x1 = 0.403
  refractive index: 1.4193 ± 0.0011
[1]; 308.15 K, x1 = 0.501
  refractive index: 1.4234 ± 0.0011
[1]; 308.15 K, x1 = 0.601
  refractive index: 1.4267 ± 0.0011
[1]; 308.15 K, x1 = 0.701
  refractive index: 1.431 ± 0.001
[1]; 308.15 K, x1 = 0.8
  refractive index: 1.4345 ± 0.0011
[1]; 308.15 K, x1 = 0.9
  refractive index: 1.4382 ± 0.0011
[1]; 308.15 K, x1 = 1
  refractive index: 1.4417 ± 0.0011
[1]; 318.15 K, x1 = 0.1
  refractive index: 1.4051 ± 0.0011
[1]; 318.15 K, x1 = 0.2
  refractive index: 1.4089 ± 0.0011
[1]; 318.15 K, x1 = 0.3
  refractive index: 1.4119 ± 0.0011
[1]; 318.15 K, x1 = 0.403
  refractive index: 1.4166 ± 0.0011
[1]; 318.15 K, x1 = 0.501
  refractive index: 1.4201 ± 0.0011
[1]; 318.15 K, x1 = 0.601
  refractive index: 1.4242 ± 0.0011
[1]; 318.15 K, x1 = 0.701
  refractive index: 1.428 ± 0.001
[1]; 318.15 K, x1 = 0.8
  refractive index: 1.4324 ± 0.0011
[1]; 318.15 K, x1 = 0.9
  refractive index: 1.4358 ± 0.0011
[1]; 318.15 K, x1 = 1
  refractive index: 1.4393 ± 0.0011
[2]; 298.15 K, x1 = 0.1
  relative permittivity: 16.037 ± 0.19
[2]; 298.15 K, x1 = 0.2
  relative permittivity: 17.171 ± 0.21
[2]; 298.15 K, x1 = 0.3
  relative permittivity: 18.467 ± 0.22
[2]; 298.15 K, x1 = 0.403
  relative permittivity: 19.924 ± 0.24
[2]; 298.15 K, x1 = 0.501
  relative permittivity: 21.49 ± 0.26
[2]; 298.15 K, x1 = 0.601
  relative permittivity: 23.245 ± 0.28
[2]; 298.15 K, x1 = 0.701
  relative permittivity: 25.108 ± 0.3
[2]; 298.15 K, x1 = 0.8
  relative permittivity: 27.105 ± 0.33
[2]; 298.15 K, x1 = 0.9
  relative permittivity: 29.265 ± 0.35
[2]; 298.15 K, x1 = 1
  relative permittivity: 31.587 ± 0.38
[2]; 308.15 K, x1 = 0.1
  relative permittivity: 14.699 ± 0.18
[2]; 308.15 K, x1 = 0.2
  relative permittivity: 15.827 ± 0.19
[2]; 308.15 K, x1 = 0.3
  relative permittivity: 17.054 ± 0.21
[2]; 308.15 K, x1 = 0.403
  relative permittivity: 18.471 ± 0.22
[2]; 308.15 K, x1 = 0.501
  relative permittivity: 19.97 ± 0.24
[2]; 308.15 K, x1 = 0.601
  relative permittivity: 21.632 ± 0.26
[2]; 308.15 K, x1 = 0.701
  relative permittivity: 23.459 ± 0.28
[2]; 308.15 K, x1 = 0.8
  relative permittivity: 25.339 ± 0.31
[2]; 308.15 K, x1 = 0.9
  relative permittivity: 27.356 ± 0.33
[2]; 308.15 K, x1 = 1
  relative permittivity: 29.482 ± 0.35
[2]; 318.15 K, x1 = 0.1
  relative permittivity: 13.391 ± 0.16
[2]; 318.15 K, x1 = 0.2
  relative permittivity: 14.452 ± 0.17
[2]; 318.15 K, x1 = 0.3
  relative permittivity: 15.646 ± 0.19
[2]; 318.15 K, x1 = 0.403
  relative permittivity: 17.026 ± 0.21
[2]; 318.15 K, x1 = 0.501
  relative permittivity: 18.416 ± 0.22
[2]; 318.15 K, x1 = 0.601
  relative permittivity: 19.971 ± 0.24
[2]; 318.15 K, x1 = 0.701
  relative permittivity: 21.616 ± 0.26
[2]; 318.15 K, x1 = 0.8
  relative permittivity: 23.393 ± 0.28
[2]; 318.15 K, x1 = 0.9
  relative permittivity: 25.251 ± 0.3
[2]; 318.15 K, x1 = 1
  relative permittivity: 27.203 ± 0.33

## C1COCCO1 [1,4-dioxane] + CCCCCO
[1]; 298.15 K, x2 = 0
  refractive index: 1.4202 ± 0.001
[1]; 298.15 K, x2 = 0.1
  refractive index: 1.4181 ± 0.001
[1]; 298.15 K, x2 = 0.2
  refractive index: 1.4161 ± 0.001
[1]; 298.15 K, x2 = 0.3
  refractive index: 1.4144 ± 0.001
[1]; 298.15 K, x2 = 0.4
  refractive index: 1.4128 ± 0.0011
[1]; 298.15 K, x2 = 0.501
  refractive index: 1.4114 ± 0.0011
[1]; 298.15 K, x2 = 0.599
  refractive index: 1.4104 ± 0.0011
[1]; 298.15 K, x2 = 0.699
  refractive index: 1.4096 ± 0.0011
[1]; 298.15 K, x2 = 0.801
  refractive index: 1.409 ± 0.001
[1]; 298.15 K, x2 = 0.9
  refractive index: 1.4086 ± 0.0011
[1]; 308.15 K, x2 = 0
  refractive index: 1.4144 ± 0.001
[1]; 308.15 K, x2 = 0.1
  refractive index: 1.4121 ± 0.001
[1]; 308.15 K, x2 = 0.2
  refractive index: 1.4103 ± 0.001
[1]; 308.15 K, x2 = 0.3
  refractive index: 1.4088 ± 0.001
[1]; 308.15 K, x2 = 0.4
  refractive index: 1.4074 ± 0.0011
[1]; 308.15 K, x2 = 0.501
  refractive index: 1.4063 ± 0.0011
[1]; 308.15 K, x2 = 0.599
  refractive index: 1.4055 ± 0.0011
[1]; 308.15 K, x2 = 0.699
  refractive index: 1.4048 ± 0.0011
[1]; 308.15 K, x2 = 0.801
  refractive index: 1.4044 ± 0.0011
[1]; 308.15 K, x2 = 0.9
  refractive index: 1.4042 ± 0.0011
[1]; 318.15 K, x2 = 0
  refractive index: 1.4086 ± 0.001
[1]; 318.15 K, x2 = 0.1
  refractive index: 1.407 ± 0.001
[1]; 318.15 K, x2 = 0.2
  refractive index: 1.4055 ± 0.001
[1]; 318.15 K, x2 = 0.3
  refractive index: 1.4042 ± 0.001
[1]; 318.15 K, x2 = 0.4
  refractive index: 1.403 ± 0.0011
[1]; 318.15 K, x2 = 0.501
  refractive index: 1.4021 ± 0.0011
[1]; 318.15 K, x2 = 0.599
  refractive index: 1.4014 ± 0.0011
[1]; 318.15 K, x2 = 0.699
  refractive index: 1.4008 ± 0.0011
[1]; 318.15 K, x2 = 0.801
  refractive index: 1.4004 ± 0.0011
[1]; 318.15 K, x2 = 0.9
  refractive index: 1.4002 ± 0.0011
[2]; 298.15 K, x2 = 0
  relative permittivity: 2.229 ± 0.027
[2]; 298.15 K, x2 = 0.1
  relative permittivity: 2.657 ± 0.033
[2]; 298.15 K, x2 = 0.2
  relative permittivity: 3.255 ± 0.041
[2]; 298.15 K, x2 = 0.3
  relative permittivity: 4.016 ± 0.051
[2]; 298.15 K, x2 = 0.4
  relative permittivity: 4.941 ± 0.063
[2]; 298.15 K, x2 = 0.501
  relative permittivity: 6.082 ± 0.077
[2]; 298.15 K, x2 = 0.599
  relative permittivity: 7.387 ± 0.093
[2]; 298.15 K, x2 = 0.699
  relative permittivity: 8.915 ± 0.11
[2]; 298.15 K, x2 = 0.801
  relative permittivity: 10.714 ± 0.13
[2]; 298.15 K, x2 = 0.9
  relative permittivity: 12.796 ± 0.16
[2]; 308.15 K, x2 = 0
  relative permittivity: 2.209 ± 0.027
[2]; 308.15 K, x2 = 0.1
  relative permittivity: 2.587 ± 0.032
[2]; 308.15 K, x2 = 0.2
  relative permittivity: 3.124 ± 0.039
[2]; 308.15 K, x2 = 0.3
  relative permittivity: 3.77 ± 0.048
[2]; 308.15 K, x2 = 0.4
  relative permittivity: 4.63 ± 0.059
[2]; 308.15 K, x2 = 0.501
  relative permittivity: 5.652 ± 0.071
[2]; 308.15 K, x2 = 0.599
  relative permittivity: 6.781 ± 0.085
[2]; 308.15 K, x2 = 0.699
  relative permittivity: 8.18 ± 0.1
[2]; 308.15 K, x2 = 0.801
  relative permittivity: 9.793 ± 0.12
[2]; 308.15 K, x2 = 0.9
  relative permittivity: 11.622 ± 0.14
[2]; 318.15 K, x2 = 0
  relative permittivity: 2.187 ± 0.026
[2]; 318.15 K, x2 = 0.1
  relative permittivity: 2.527 ± 0.031
[2]; 318.15 K, x2 = 0.2
  relative permittivity: 3.024 ± 0.038
[2]; 318.15 K, x2 = 0.3
  relative permittivity: 3.63 ± 0.046
[2]; 318.15 K, x2 = 0.4
  relative permittivity: 4.402 ± 0.056
[2]; 318.15 K, x2 = 0.501
  relative permittivity: 5.34 ± 0.067
[2]; 318.15 K, x2 = 0.599
  relative permittivity: 6.332 ± 0.079
[2]; 318.15 K, x2 = 0.699
  relative permittivity: 7.529 ± 0.094
[2]; 318.15 K, x2 = 0.801
  relative permittivity: 8.951 ± 0.11
[2]; 318.15 K, x2 = 0.9
  relative permittivity: 10.578 ± 0.13

## CC(C)CCO [3-methylbutan-1-ol]
[3]
  mass density: 807.16 ± 0.24 kg/m3
[4]; 298.15 K
  refractive index: 1.4048 ± 0.0011
[4]; 308.15 K
  refractive index: 1.4011 ± 0.0011
[4]; 318.15 K
  refractive index: 1.3973 ± 0.0011
[5]; 298.15 K
  relative permittivity: 14.93 ± 0.18
[5]; 308.15 K
  relative permittivity: 13.402 ± 0.16
[5]; 318.15 K
  relative permittivity: 12.051 ± 0.14
